{"source": "patent US20240424010A1", "about": "“NICOTINAMIDE RIBOSIDE TRIOLEATES CHLORIDE, COMPOSITIONS CONTAINING THIS COMPOUND, AND METHODS OF MAKING AND USING THIS COMPOUND” (SOCIETE DES PRODUITS NESTLE S.A., priority 2021, published 2024)", "type_in_all_cases": "physicochemical", "key": {"[1]": {"assay": "Stability of NRTOCl and NRCl in DI water at 35° C. for 28 days (released nicotinamide by HPLC)", "experimental": "Although NRTOCl is a quaternary ammonium salt, it was not dissolved in water due to the existence of three groups of oleate fatty ester in its structure. Therefore, for the stability study of NRTOCl, this compound was dispersed in DI water using 1% ethanol as a cosolvent. For this purpose, 15 mg of NRTOCl was dissolved in 0.15 ml of ethanol (1%) and then 14.85 ml of DI water was added to the mixture and gently shaken. […] Although the average size of NRTOCl in this sample was 192 nm, the images of TEM disclosed smaller particles with around 50 nm and oval and spherical shapes with aspect ratio close to unity (FIGS. 10A-10C). In the nanoparticles, the NRTOCl structures are stacked on top of each other layer-by-layer. The highly positive charge of NRTO makes the nanoparticles stable in the aqueous phase. After dispersion of NRTOCl in DI water, NRCl was dissolved in DI water, and the stability of these samples were studied at 35° C. for 28 days (FIG. 11). The concentration of each sample was 1000 ppm. As during the hydrolysis reaction of NRTO and NR, both of these compounds released nicotinamide (FIG. 12), and by measuring the released amount of nicotinamide in each sample with HPLC, the remaining amounts of NRTO and NR in each sample were calculated. During this study, any release of NR from NRTO sample was not detected. It signifies that the heavy ester groups in NRTO sample are not hydrolyzed during the time of stability study. Because this study was performed in DI water and the conditions were mild, the NRTO was hydrolyzed from its N-glycoside bond."}, "[2]": {"assay": "Solubility of NRTOCl in water and in canola, corn and MCT oil", "experimental": "2154 mg of canola oil was added to a 15 mL falcon tube containing 380 mg of NRTOCl. Then, the tube was placed in a water bath and was shaken at around 35° C. until NRTOCl was completely dissolved in canola oil. After dissolving NRTOCl in canola oil, the sample was kept at room temperature for the next studies. […] Although NRTOCl is a quaternary ammonium salt, it was not dissolved in water due to the existence of three groups of oleate fatty ester in its structure. Therefore, for the stability study of NRTOCl, this compound was dispersed in DI water using 1% ethanol as a cosolvent. For this purpose, 15 mg of NRTOCl was dissolved in 0.15 ml of ethanol (1%) and then 14.85 ml of DI water was added to the mixture and gently shaken. […] Although the average size of NRTOCl in this sample was 192 nm, the images of TEM disclosed smaller particles with around 50 nm and oval and spherical shapes with aspect ratio close to unity (FIGS. 10A-10C). In the nanoparticles, the NRTOCl structures are stacked on top of each other layer-by-layer. The highly positive charge of NRTO makes the nanoparticles stable in the aqueous phase."}, "[3]": {"assay": "Particle size, zeta-potential (dynamic light scattering) and TEM of NRTOCl dispersion and emulsions", "experimental": "The particle size distribution, mean particle diameter (Zeta average size) and zeta-potential of NRTOCl in DI water were measured by using a commercial dynamic light-scattering device (Nano-ZS, Malvern Instruments, Worcestershire, UK). Tecnai F20 TEM/STEM transmission electron microscope (200 kV) was used for characterizing the structure and morphology of prepared NRTOCl nanoparticles. Although NRTOCl is a quaternary ammonium salt, it was not dissolved in water due to the existence of three groups of oleate fatty ester in its structure. Therefore, for the stability study of NRTOCl, this compound was dispersed in DI water using 1% ethanol as a cosolvent. For this purpose, 15 mg of NRTOCl was dissolved in 0.15 ml of ethanol (1%) and then 14.85 ml of DI water was added to the mixture and gently shaken. […] Although the average size of NRTOCl in this sample was 192 nm, the images of TEM disclosed smaller particles with around 50 nm and oval and spherical shapes with aspect ratio close to unity (FIGS. 10A-10C). In the nanoparticles, the NRTOCl structures are stacked on top of each other layer-by-layer. The highly positive charge of NRTO makes the nanoparticles stable in the aqueous phase. […] The total oil phase in these emulsions were 3.2 wt. %, and the concentration of NRTOCl in total volume of each emulsion (15 mL) was 4.4 mM. In the emulsions that used Na-caseinate as an emulsifier, NaN3 (0.01 wt. %) was added to prevent the growth of bacteria. […] An NRTO in canola oil-in-water emulsion was also prepared, using 2 wt. % Tween 80 as an emulsifier in DI water (Tween emulsion). […] As expected by using Tween 80 as a neutral emulsifier, the positive charge of NRTO droplets was almost intact in the emulsion."}, "[4]": {"assay": "Hydrolysis stability of NRTOCl emulsions and NRCl in water at room temperature for 42 days", "experimental": "After each specific time of stability for NRTOCl and NRCl emulsions, 1.5 mL of each emulsion was centrifuged (14,000 rpm) for 20 minutes at room temperature. […] However, during this time of stability study, 52.0% NR was intact in water at room temperature. […] During this time, these emulsions were stable without visible phase separation. A little increase in the average size of the NRTO droplets occurred in these emulsions, so that in Cas emulsion, the average size increased from 1020 nm to 1281 nm, and in Cas-Lec emulsion, this parameter increased from 1012 nm to 1106 nm."}, "[5]": {"conditions": "NRTOCl dispersed in DI water with 1% ethanol, 1,000 ppm"}}, "note": "“Also recorded” adds a separate entry of the source.", "data": [{"smiles": "CCCCCCCC/C=C\\CCCCCCCC(=O)OC[C@H]1O[C@@H]([n+]2cccc(C(N)=O)c2)[C@H](OC(=O)CCCCCCC/C=C\\CCCCCCCC)[C@@H]1OC(=O)CCCCCCC/C=C\\CCCCCCCC.[Cl-]", "note": "[NRTOCl, nicotinamide riboside trioleates chloride]", "values": [{"measurement": "release of NR from NRTO sample (ester hydrolysis) during stability study", "setting": "[1]; DI water", "result": "not detected"}, {"measurement": "remaining amount after 28 days", "setting": "[1]; DI water, 1000 ppm, 28 days", "result": 53.3, "unit": "%"}, {"measurement": "times more stable than NRCl in water", "setting": "[1]; 28 days", "result": 88, "unit": "times"}, {"measurement": "times more stable than NRCl in water", "setting": "[1]; 28 days, listed as NRTO", "result": "more than 88 times"}, {"measurement": "appearance of 15 wt. % solution in canola oil during storage", "setting": "[2]; 15 wt. % NRTOCl in canola oil, room temperature", "result": "stable and clear without any sediment"}, {"measurement": "solubility in canola oil", "setting": "[2]; canola oil", "result": "easily dissolved"}, {"measurement": "solubility in canola, corn and MCT oil", "setting": "[2]; room temperature", "result": "easily dissolved"}, {"measurement": "solubility in water", "setting": "[2]; water", "result": "not soluble in water; also recorded: not dissolved; also recorded: water insoluble"}, {"measurement": "particle size (average size)", "setting": "[3]; [5]", "result": 192, "unit": "nm"}, {"measurement": "zeta potential", "setting": "[3]; [5]", "result": "+65 mV"}, {"measurement": "particle size by TEM", "setting": "[3]; NRTOCl dispersed in DI water, TEM images", "result": "around 50 nm"}, {"measurement": "released NR from NRTO (hydrolysis of ester groups)", "setting": "[4]; all NRTO stability conditions", "result": "no released NR"}, {"measurement": "hydrolysis of NRTO after 42 days", "setting": "[4]; canola oil-in-water emulsion (sodium caseinate), room temperature, 42 days", "result": 5, "unit": "%"}]}]}
